# According to paper PMC12477080, “Polychlorinated biphenyls (PCBs) interact with drug metabolism in vivo” (Archives of Toxicology, 2025):
# Columns and labels:
# [1] = Determination of PCB concentrations in plasma of HELPcB and control participants; format: in vivo; conditions: human plasma, N 10; for PCB plasma concentration, Geometric mean, HELPcB: HELPcB group; for PCB plasma concentration, Geometric mean, Control: control group
# Description: The laboratory regularly participates in round robins for the determination of PCBs in plasma (www.g-equas.de).
# Plasma concentrations of PCB congeners were quantified in blood samples from all participants using gas chromatography/mass spectrometry (GC–MS) (Fig. 2A and Supplementary Table 2). A total of 19 PCB congeners were measured in control (n = 10) and HELPcB (n = 10) participants, with PCBs detected in all individuals. […] In the control group, PCB plasma concentrations primarily reflected background environmental exposure, such as dietary intake, representing the general population’s burden.
# [2] = Stability of substrates and metabolites in quality control samples (benchtop, autosampler, freeze-thaw); format: physicochemical; conditions: for Autosampler stability (24 h) Av. Accuracy (%): 10° C for 24 hours in the autosampler; for 3x freeze-thaw Av. Accuracy (%): after three freeze-thaw cycles; for Benchtop stability (19 h) Ac. Accuracy (%): room temperature for 19 hours
# From the text: The method was validated for intra- and interday accuracy and precision, stability, and matrix effects. […] Validation details are provided in Supplementary Tables 5–7 and supplemental Fig. 3. Glucuronidase/sulfatase digests were used to isolate CYP-specific metabolic activities, reducing interference from polymorphic UDP-glucuronosyltransferase (UGT) and sulfotransferase isoforms.
# Supplemental table 6: Stability of the substrates and metabolites. Quality control samples were left at room temperature for 19 hours (benchtop stability) and at 10° C for 24 hours in the autosampler (autosampler stability) or were measured after three freeze-thaw cycles. Stability samples were measured against a freshly prepared set of calibrators and quality control samples.
smiles,measurement,setting,value
Clc1ccc(-c2ccc(Cl)cc2Cl)cc1 [PCB 28],"PCB plasma concentration, Geometric mean, HELPcB",[1],0.014 ng/mL
same,"PCB plasma concentration, Geometric mean, Control",[1],0.006 ng/mL
Clc1ccc(Cl)c(-c2cc(Cl)ccc2Cl)c1 [PCB 52],"PCB plasma concentration, Geometric mean, HELPcB",[1],BLQ
same,"PCB plasma concentration, Geometric mean, Control",[1],BLQ
Clc1ccc(-c2ccc(Cl)c(Cl)c2)cc1Cl [PCB 77],"PCB plasma concentration, Geometric mean, HELPcB",[1],BLQ
same,"PCB plasma concentration, Geometric mean, Control",[1],BLQ
Clc1ccc(-c2cc(Cl)c(Cl)c(Cl)c2)cc1 [PCB 81],"PCB plasma concentration, Geometric mean, HELPcB",[1],BLQ
same,"PCB plasma concentration, Geometric mean, Control",[1],BLQ
Clc1ccc(Cl)c(-c2cc(Cl)c(Cl)cc2Cl)c1 [PCB 101],"PCB plasma concentration, Geometric mean, HELPcB",[1],0.005 ng/mL
same,"PCB plasma concentration, Geometric mean, Control",[1],BLQ
Clc1ccc(-c2ccc(Cl)c(Cl)c2Cl)cc1Cl [PCB 105],"PCB plasma concentration, Geometric mean, HELPcB",[1],0.014 ng/mL
same,"PCB plasma concentration, Geometric mean, Control",[1],BLQ
"COCCc1ccc(OCC(O)CNC(C)C)cc1 (stereo not drawn) [metoprolol, reference compound]",Autosampler stability (24 h) Av. Accuracy (%),"[2]; QC conc. 0,5 ng/ml","105,36%"
same,3x freeze-thaw Av. Accuracy (%),"[2]; QC conc. 0,5 ng/ml","109,56%"
same,Benchtop stability (19 h) Ac. Accuracy (%),"[2]; QC conc. 0,5 ng/ml","106,29%"
same,Autosampler stability (24 h) Av. Accuracy (%),"[2]; QC conc. 0,25 ng/ml","105,01%"
same,3x freeze-thaw Av. Accuracy (%),"[2]; QC conc. 0,25 ng/ml","99,7%"
same,Benchtop stability (19 h) Ac. Accuracy (%),"[2]; QC conc. 0,25 ng/ml","92,77%"
same,Autosampler stability (24 h) Av. Accuracy (%),[2]; QC conc. 60 ng/ml,"111,39%"
same,3x freeze-thaw Av. Accuracy (%),[2]; QC conc. 60 ng/ml,"105,26%"
same,Benchtop stability (19 h) Ac. Accuracy (%),[2]; QC conc. 60 ng/ml,"110,41%"
same,Autosampler stability (24 h) Av. Accuracy (%),[2]; QC conc. 150 ng/ml,"100,37%"
same,3x freeze-thaw Av. Accuracy (%),[2]; QC conc. 150 ng/ml,"98,84%"
same,Benchtop stability (19 h) Ac. Accuracy (%),[2]; QC conc. 150 ng/ml,"102,76%"
same,Autosampler stability (24 h) Av. Accuracy (%),"[2]; QC conc. 1,5 ng/ml","112,83%"
same,3x freeze-thaw Av. Accuracy (%),"[2]; QC conc. 1,5 ng/ml","103,63%"
same,Benchtop stability (19 h) Ac. Accuracy (%),"[2]; QC conc. 1,5 ng/ml","111,4%"
"Cc1ncc2n1-c1ccc(Cl)cc1C(c1ccccc1F)=NC2 [midazolam, reference compound]",Autosampler stability (24 h) Av. Accuracy (%),"[2]; QC conc. 0,1 ng/ml","107,46%"
same,3x freeze-thaw Av. Accuracy (%),"[2]; QC conc. 0,1 ng/ml","104,96%"
same,Benchtop stability (19 h) Ac. Accuracy (%),"[2]; QC conc. 0,1 ng/ml","106,81%"
same,Autosampler stability (24 h) Av. Accuracy (%),"[2]; QC conc. 0,3 ng/ml","104,87%"
same,3x freeze-thaw Av. Accuracy (%),"[2]; QC conc. 0,3 ng/ml","98,61%"
same,Benchtop stability (19 h) Ac. Accuracy (%),"[2]; QC conc. 0,3 ng/ml","104,39%"
same,Autosampler stability (24 h) Av. Accuracy (%),"[2]; QC conc. 0,05 ng/ml","103,51%"
same,3x freeze-thaw Av. Accuracy (%),"[2]; QC conc. 0,05 ng/ml","109,93%"
same,Benchtop stability (19 h) Ac. Accuracy (%),"[2]; QC conc. 0,05 ng/ml","89,44%"
same,Autosampler stability (24 h) Av. Accuracy (%),[2]; QC conc. 12 ng/ml,"110,93%"
same,3x freeze-thaw Av. Accuracy (%),[2]; QC conc. 12 ng/ml,"103,85%"
same,Benchtop stability (19 h) Ac. Accuracy (%),[2]; QC conc. 12 ng/ml,"109,38%"
same,Autosampler stability (24 h) Av. Accuracy (%),[2]; QC conc. 30 ng/ml,"99,76%"
same,3x freeze-thaw Av. Accuracy (%),[2]; QC conc. 30 ng/ml,"97,41%"
same,Benchtop stability (19 h) Ac. Accuracy (%),[2]; QC conc. 30 ng/ml,"99,8%"
"Cc1cccc(Nc2ccncc2S(=O)(=O)NC(=O)NC(C)C)c1 [torsemide, reference compound]",Autosampler stability (24 h) Av. Accuracy (%),[2]; QC conc. 1 ng/ml,"105,13%"
same,3x freeze-thaw Av. Accuracy (%),[2]; QC conc. 1 ng/ml,"102,74%"
same,Benchtop stability (19 h) Ac. Accuracy (%),[2]; QC conc. 1 ng/ml,"97,46%"
same,Autosampler stability (24 h) Av. Accuracy (%),[2]; QC conc. 2 ng/ml,"108,32%"
same,3x freeze-thaw Av. Accuracy (%),[2]; QC conc. 2 ng/ml,"105,85%"
same,Benchtop stability (19 h) Ac. Accuracy (%),[2]; QC conc. 2 ng/ml,"107,17%"
same,Autosampler stability (24 h) Av. Accuracy (%),[2]; QC conc. 6 ng/ml,"108,92%"
same,3x freeze-thaw Av. Accuracy (%),[2]; QC conc. 6 ng/ml,"106,12%"
same,Benchtop stability (19 h) Ac. Accuracy (%),[2]; QC conc. 6 ng/ml,"107,51%"
same,Autosampler stability (24 h) Av. Accuracy (%),[2]; QC conc. 240 ng/ml,"109,92%"
same,3x freeze-thaw Av. Accuracy (%),[2]; QC conc. 240 ng/ml,"103,96%"
same,Benchtop stability (19 h) Ac. Accuracy (%),[2]; QC conc. 240 ng/ml,"108,15%"
same,Autosampler stability (24 h) Av. Accuracy (%),[2]; QC conc. 600 ng/ml,"97,91%"
same,3x freeze-thaw Av. Accuracy (%),[2]; QC conc. 600 ng/ml,"96,67%"
same,Benchtop stability (19 h) Ac. Accuracy (%),[2]; QC conc. 600 ng/ml,"99,27%"
